By logP is commonly meant the decadic logarithm of the partition coefficient of the neutral form, usually between octanol and water. Lower therefore signals a more hydrophilic compound.

The nature of series [1]: logP determination by HPLC (EEC Directive 79/831 Annex V. A8). In kind it is physicochemical. To be noted: HPLC gradient method, acetonitrile/0.1% aqueous phosphoric acid. On the procedure: The logP values were determined in accordance with EEC Directive 79/831 Annex V. A8 by HPLC (gradient method, acetonitrile/0.1% aqueous phosphoric acid).
A further series deals with Botrytis cinerea. As to the kind of experiment: Botrytis test (cucumber)/protective. In kind it is in vivo. Conditions: young cucumber plants, protective spray, application rate 750 g/ha, evaluation 5-6 days after inoculation. On the procedure: • Botrytis test (cucumber)/protective • Solvent: 49 parts by weight of N,N-dimethylformamide • Emulsifier: 1 part by weight of alkylaryl polyglycol ether
To produce a suitable preparation of active compound, 1 part by weight of active compound is mixed with the stated amounts of solvent and emulsifier, and the concentrate is diluted with water to the desired concentration.
To test for protective activity, young cucumber plants are sprayed with the preparation of active compound at the stated application rate. One day aft er the treatment, the plants are inoculated with a spore suspension of Botrytis cinerea and then remain at 100% relative hunmdity and 20° C. for 48 h. The plants then remain at 96% relative atmospheric-humidity and a temperature of 10° C.
Evaluation is carried out 5-6 days after the inoculation. 0% means an efficacy which corresponds to that of the control, whereas an efficacy of 100% means that no infection is observed.

For `C[Si](C)(C)CNc1nc2nccn2c(Cl)c1-c1c(F)cc(F)cc1F` [Example 1, 5-chloro-6-(2,4,6-trifluorophenyl-)-7-trimethylsilylmethylaminoimidazo[1,2-a]pyrimidine], the logP in series [1] came to 2.09.
Molecule `CC(Nc1nc2nccn2c(Cl)c1-c1c(F)cc(F)cc1F)[Si](C)(C)C` (stereo not drawn) [Example 2, 5-chloro-6-(2,4,6-trifloropheny)-7-(1-trimethylsilylethylamino)imidazo[1,2-a]pyrimidine] displayed a logP in series [1] of 2.18. In addition, the efficacy with Botrytis cinerea was over 80%.
